According to publication PMC9404711 (Antibiotics, 2022):
Read-outs that look alike come from different tables or passages of the source. Non-standard residues stand in square brackets, D forms with d. Residues, ends and D or L forms follow the SMILES beside them. *: point of attachment. Myristoyl = CCCCCCCCCCCCCC(=O)*; Lauroyl = CCCCCCCCCCCC(=O)*; Decanoyl = CCCCCCCCCC(=O)*; Octanoyl = CCCCCCCC(=O)*

Key:
[1] = tested on: S. aureus (ATCC 29213); experiment: MIC determination, broth microdilution; format: cell-based, Staphylococcus aureus; details: S. aureus ATCC 29213, MHB-II, 37 °C, 18–24 h, triplicate
Experimental: (§1) The following bacteria were grown in cation-adjusted Muller-Hinton broth at 37 °C with shaking: A. baumannii (ATCC 19606), E. coli (ATCC 25922), K. pneumoniae (ATCC 13883), P. aeruginosa (ATCC 27853), and S. aureus (ATCC 29213).
(§2) The MIC experiments were performed in triplicate, as described in Jensen et al.. Briefly, all peptide stock solutions were prepared by dissolving each peptide in Milli-Q water to obtain a concentration of 10 mg/mL. A bacterial concentration of 10^6 CFU/mL was obtained through the dilution of an overnight culture (MHB-II medium). When the overnight culture was prepared, the OD was measured using a spectrophotometer and when an OD value between 0.2 and 0.4 was obtained, the culture was diluted to OD = 0.002. The MIC determination was carried out in 96-well polypropylene microtitre plates. […] A final bacterial inoculum of 5 × 10^5 CFU/mL per well was obtained by adding 50 μL bacterial suspension to the microtiter plates. The plates were incubated at 37 °C for 18–24 h. To verify the CFU, 10 μL of bacteria suspension was transferred to 990 μL 0.9 % saline solution, from which a 10-fold dilution was carried out. Then, 100 μL of the dilution was plated on an LB plate and left for bacterial growth overnight at 37 °C. Colistin and vancomycin were used as the positive controls.

[2] = tested on: E. coli (ATCC 25922); format: cell-based, Escherichia coli; details: E. coli ATCC 25922, MHB-II, 37 °C, 18–24 h, triplicate
Experimental: as §1, §2

[3] = tested on: K. pneumoniae (ATCC 13883); format: cell-based, Klebsiella pneumoniae; details: K. pneumoniae ATCC 13883, MHB-II, 37 °C, 18–24 h, triplicate
Experimental: as §1, §2

[4] = tested on: A. baumannii (ATCC 19606); format: cell-based, Acinetobacter baumannii; details: A. baumannii ATCC 19606, MHB-II, 37 °C, 18–24 h, triplicate
Experimental: as §1, §2

[5] = tested on: P. aeruginosa (ATCC 27853); format: cell-based, Pseudomonas aeruginosa; details: P. aeruginosa ATCC 27853, MHB-II, 37 °C, 18–24 h, triplicate
Experimental: as §1, §2

[6] = Hydrophobicity by analytical RP-HPLC (%B at elution); format: physicochemical; details: chromatographic, analytical reversed-phase HPLC, Waters Symmetry C18 5 μm 4.6 × 250 mm; A: H2O + 0.1% TFA, B: 90:10 ACN-H2O + 0.1% TFA
Experimental: Peptide purity was determined as described previously by analytical RP-HPLC using a Waters 717 plus Autosampler, In-line Degasser AF, 600 Controller, and 2996 Photodiode Array Detector; the column used was a Waters Symmetry C18 column (5 μm, 4.6 mm × 250 mm, Milford, MA, USA). An aqueous acetonitrile (ACN) gradient with 0.1% TFA added (mixing eluent A: H2O + 0.1% TFA and eluent B: 90:10 ACN-H2O + 0.1% TFA) was employed using milli-Q water. Preparative RP-HPLC was performed by using a Waters XSelect Peptide CSH C18 OBDTM column (5 μm, 19 mm × 250 mm, Milford, MA, USA) with the same eluents as for analytical HPLC.
*Hydrophobicity as indicated by the percentage of mobile phase B (%B) at the peak elution time on analytical

[7] = tested on: human erythrocytes; details: 150 μM peptide; 0.5% (v/v) red blood cell suspension in PBS, 1 h at 37 °C, absorbance 414 nm; melittin positive control, PBS negative control; three wells
Experimental: PBS served as the negative control and 5 μM melittin served as the positive control. All melittin solutions were prepared in Protein LoBind Eppendorf tubes to prevent the adsorption of melittin to the inner surface of the tubes.
Preparation of peptide solutions and melittin: A 5 μM melittin solution in PBS was prepared the day before the hemolysis experiment. First, 150 μL of this solution was transferred to each of the positive control wells and stored in the fume hood to coat the wells. On the day of the experiment, the melittin solution was discarded and the wells were washed with 3 × PBS. A 2.5 μM melittin solution in PBS was prepared and 75 μL was transferred to the wells. PBS (150 μL) was used as the negative control. A solution of each peptide was prepared by dissolving the peptide in 0.5 mL PBS to obtain a concentration of 300 μM. Each peptide solution (150 μL) was transferred to the wells in three wells each in row A, and the plate was diluted down.
Preparation of the red blood cell suspension: 1 mL of type O- whole blood in citrate was transferred to a cryotube. The whole blood was washed with 3 × PBS; adding 3, 3, and 4 mL of PBS, respectively. In between, the blood was centrifuged for 8 min (3000, 3000, and 4000 rpm, respectively) and the supernatant was removed after each centrifugation. A 0.5% (v/v) blood suspension was prepared by adding 40 μL of the washed blood cells to 8 mL of PBS. Then, 75 μL of the red blood cell suspension was transferred to each well and mixed gently. The plate was sealed and incubated for 1 h at 37 °C. After incubation, the plate was centrifuged at 4000 rpm for 10 min. Afterwards, 60 μL of the supernatant from each well was quickly transferred to an ELISA plate.
The absorbance was determined at 414 nm, and Equation (1) below was used to calculate the hemolytic activity of the peptides.

Compound	MIC SA ([1]; value in brackets) [µM]	MIC EC ([2]; inoculum 5 × 10^5 CFU/mL) [µg/mL]	MIC EC ([2]; value in brackets) [µM]	MIC KP ([3]; inoculum 5 × 10^5 CFU/mL) [µg/mL]	MIC KP ([3]; value in brackets) [µM]	MIC AB ([4]; inoculum 5 × 10^5 CFU/mL) [µg/mL]	MIC AB ([4]; value in brackets) [µM]	MIC PA ([5]; inoculum 5 × 10^5 CFU/mL) [µg/mL]	MIC PA ([5]; value in brackets) [µM]	%B (hydrophobicity: percentage of mobile phase B at the peak elution time) [6] [%B]	% hemolysis of human erythrocytes [7] [%]	MIC SA ([1]; inoculum 5 × 10^5 CFU/mL) [µg/mL]
CCCCCCCC(=O)N[C@H](CCCCN)C(=O)N[C@H](CCCCN)C(=O)N[C@H](CC(C)C)C(=O)N[C@H](Cc1ccccc1)C(=O)N[C@H](CCCCN)C(=O)N[C@H](CCCCN)C(=O)N[C@@H](C(=O)N[C@H](CC(C)C)C(=O)N[C@H](CCCNC(=N)N)C(=O)N[C@H](Cc1ccc(O)cc1)C(=O)N[C@H](CC(C)C)C(N)=O)[C@H](C)CC [compound 3] (Octanoyl-[dK][dK][dL][dF][dK][dK][dI][dL][dR][dY][dL]-NH2)	40.1	16	10.2	8	5.1	4	2.5	32	20.3	64.1	100	
CCCCCCCCCC(=O)N[C@H](CCCCN)C(=O)N[C@H](CCCCN)C(=O)N[C@H](CC(C)C)C(=O)N[C@H](Cc1ccccc1)C(=O)N[C@H](CCCCN)C(=O)N[C@H](CCCCN)C(=O)N[C@@H](C(=O)N[C@H](CC(C)C)C(=O)N[C@H](CCCNC(=N)N)C(=O)N[C@H](Cc1ccc(O)cc1)C(=O)N[C@H](CC(C)C)C(N)=O)[C@H](C)CC [compound 4] (Decanoyl-[dK][dK][dL][dF][dK][dK][dI][dL][dR][dY][dL]-NH2)	20.0	32	20.0	32	20.0	32	20.0	32	20.0	85.0	100	32
CCCCCCCCCCCC(=O)N[C@H](CCCCN)C(=O)N[C@H](CCCCN)C(=O)N[C@H](CC(C)C)C(=O)N[C@H](Cc1ccccc1)C(=O)N[C@H](CCCCN)C(=O)N[C@H](CCCCN)C(=O)N[C@@H](C(=O)N[C@H](CC(C)C)C(=O)N[C@H](CCCNC(=N)N)C(=O)N[C@H](Cc1ccc(O)cc1)C(=O)N[C@H](CC(C)C)C(N)=O)[C@H](C)CC [compound 5] (Lauroyl-[dK][dK][dL][dF][dK][dK][dI][dL][dR][dY][dL]-NH2)	39.2	64	39.2	64	39.2	64	39.2	64	39.2	90.5	100	64
CCCCCCCCCCCCCC(=O)N[C@H](CCCCN)C(=O)N[C@H](CCCCN)C(=O)N[C@H](CC(C)C)C(=O)N[C@H](Cc1ccccc1)C(=O)N[C@H](CCCCN)C(=O)N[C@H](CCCCN)C(=O)N[C@@H](C(=O)N[C@H](CC(C)C)C(=O)N[C@H](CCCNC(=N)N)C(=O)N[C@H](Cc1ccc(O)cc1)C(=O)N[C@H](CC(C)C)C(N)=O)[C@H](C)CC [compound 6] (Myristoyl-[dK][dK][dL][dF][dK][dK][dI][dL][dR][dY][dL]-NH2)		> 64	> 38.6	> 64	> 38.6	> 64	> 38.6	> 64	> 38.6	96.5	100	> 64
CC[C@@H](C)[C@@H](NC(=O)[C@@H](CCCCN)NC(=O)[C@@H](CCCCN)NC(=O)[C@@H](Cc1ccccc1)NC(=O)[C@@H](CC(C)C)NC(=O)[C@@H](CCCCN)NC(=O)[C@H](N)CCCCN)C(=O)N[C@H](CC(C)C)C(=O)N1CCCC[C@H](C(N)=O)NC(=O)[C@@H](Cc2ccc(O)cc2)NC(=O)[C@@H](CCCNC(=N)N)NC(=O)C1 [compound 7]	> 42.6	> 64	> 42.6	> 64	> 42.6	> 64	> 42.6	> 64	> 42.6	44.1	3	> 64
CC[C@@H](C)[C@H]1NC(=O)CN(C(=O)[C@@H](CCCCN)NC(=O)[C@@H](CCCCN)NC(=O)[C@@H](Cc2ccccc2)NC(=O)[C@@H](CC(C)C)NC(=O)[C@@H](CCCCN)NC(=O)[C@H](N)CCCCN)CCCC[C@H](C(N)=O)NC(=O)[C@@H](Cc2ccc(O)cc2)NC(=O)[C@@H](CCCNC(=N)N)NC(=O)[C@@H](CC(C)C)NC1=O [compound 9]	> 42.6	> 64	> 42.6	> 64	> 42.6	> 64	> 42.6	> 64	> 42.6	46.6	3	> 64
CCCCCCCCCC(=O)N[C@H](CCCCN)C(=O)N[C@H](CCCCN)C(=O)N[C@H](CC(C)C)C(=O)N[C@H](Cc1ccccc1)C(=O)N[C@H](CCCCN)C(=O)N[C@H](CCCCN)C(=O)N[C@@H](C(=O)N[C@H](CC(C)C)C(=O)N1CCCC[C@H](C(N)=O)NC(=O)[C@@H](Cc2ccc(O)cc2)NC(=O)[C@@H](CCCNC(=N)N)NC(=O)C1)[C@H](C)CC [compound 10]	2.4	4	2.4	8	4.8	4	2.4	4	2.4	62.7	81	4
CCCCCCCCCCCCCC(=O)N[C@H](CCCCN)C(=O)N[C@H](CCCCN)C(=O)N[C@H](CC(C)C)C(=O)N[C@H](Cc1ccccc1)C(=O)N[C@H](CCCCN)C(=O)N[C@H](CCCCN)C(=O)N[C@@H](C(=O)N1CCCC[C@H](C(N)=O)NC(=O)[C@@H](Cc2ccc(O)cc2)NC(=O)[C@@H](CCCNC(=N)N)NC(=O)[C@@H](CC(C)C)NC(=O)C1)[C@H](C)CC [compound 15]	2.3	4	2.3	16	9.3	4	2.3	8	4.6	78.5	83	4
